± gives the expanded uncertainty stated by the source.
Columns and labels:
[1] = xn = mol fraction of the nth substance listed; settings: 101 kPa, Liquid
[2] = refractive index (Na D-line) (dimensionless); xn = mol fraction of the nth substance listed; settings: 101 kPa, Liquid

CN(C)C=O [dimethylformamide] + COc1ccccc1
mass density ([1]; 298.15 K, x2 = 0): 943.9 ± 1.8 kg/m3 | speed of sound ([1]; 298.15 K, x2 = 0): 1462 ± 8 m/s | viscosity ([1]; 298.15 K, x2 = 0): 0.801 ± 0.026 mPa·s | mass density ([1]; 303.15 K, x2 = 0): 939.5 ± 1.9 kg/m3 | viscosity ([1]; 303.15 K, x2 = 0): 0.754 ± 0.025 mPa·s | mass density ([1]; 308.15 K, x2 = 0): 935 ± 2 kg/m3 | viscosity ([1]; 308.15 K, x2 = 0): 0.711 ± 0.024 mPa·s | refractive index ([2]; 298.15 K, x2 = 0): 1.4288 ± 0.0024 | refractive index ([2]; 303.15 K, x2 = 0): 1.4264 ± 0.0024 | refractive index ([2]; 308.15 K, x2 = 0): 1.4238 ± 0.0024

COc1ccccc1 [anisole] + CN(C)C=O
mass density ([1]; 298.15 K, x1 = 0.1004): 951 ± 1.9 kg/m3 | speed of sound ([1]; 298.15 K, x1 = 0.1004): 1456 ± 8 m/s | viscosity ([1]; 298.15 K, x1 = 0.1004): 0.833 ± 0.027 mPa·s | mass density ([1]; 298.15 K, x1 = 0.196): 957 ± 1.9 kg/m3 | speed of sound ([1]; 298.15 K, x1 = 0.196): 1451 ± 8 m/s | viscosity ([1]; 298.15 K, x1 = 0.196): 0.859 ± 0.028 mPa·s | mass density ([1]; 298.15 K, x1 = 0.2939): 962.9 ± 1.9 kg/m3 | speed of sound ([1]; 298.15 K, x1 = 0.2939): 1445 ± 8 m/s | viscosity ([1]; 298.15 K, x1 = 0.2939): 0.886 ± 0.029 mPa·s | mass density ([1]; 298.15 K, x1 = 0.3966): 968.5 ± 1.9 kg/m3 | speed of sound ([1]; 298.15 K, x1 = 0.3966): 1438 ± 8 m/s | viscosity ([1]; 298.15 K, x1 = 0.3966): 0.912 ± 0.03 mPa·s | mass density ([1]; 298.15 K, x1 = 0.4975): 973.4 ± 1.9 kg/m3 | speed of sound ([1]; 298.15 K, x1 = 0.4975): 1432 ± 8 m/s | viscosity ([1]; 298.15 K, x1 = 0.4975): 0.937 ± 0.03 mPa·s | mass density ([1]; 298.15 K, x1 = 0.5983): 977.6 ± 1.9 kg/m3 | speed of sound ([1]; 298.15 K, x1 = 0.5983): 1427 ± 8 m/s | viscosity ([1]; 298.15 K, x1 = 0.5983): 0.957 ± 0.031 mPa·s | mass density ([1]; 298.15 K, x1 = 0.6953): 981.2 ± 2 kg/m3 | speed of sound ([1]; 298.15 K, x1 = 0.6953): 1422 ± 8 m/s | viscosity ([1]; 298.15 K, x1 = 0.6953): 0.977 ± 0.031 mPa·s | mass density ([1]; 298.15 K, x1 = 0.7984): 984.7 ± 2 kg/m3 | speed of sound ([1]; 298.15 K, x1 = 0.7984): 1418 ± 8 m/s | viscosity ([1]; 298.15 K, x1 = 0.7984): 0.994 ± 0.032 mPa·s | mass density ([1]; 298.15 K, x1 = 0.9042): 987.7 ± 2 kg/m3 | speed of sound ([1]; 298.15 K, x1 = 0.9042): 1413 ± 8 m/s | viscosity ([1]; 298.15 K, x1 = 0.9042): 1.006 ± 0.032 mPa·s | mass density ([1]; 298.15 K, x1 = 1): 988.9 ± 2 kg/m3 | speed of sound ([1]; 298.15 K, x1 = 1): 1410 ± 8 m/s | viscosity ([1]; 298.15 K, x1 = 1): 0.992 ± 0.032 mPa·s | mass density ([1]; 303.15 K, x1 = 0.1004): 946.6 ± 1.9 kg/m3 | viscosity ([1]; 303.15 K, x1 = 0.1004): 0.787 ± 0.026 mPa·s | mass density ([1]; 303.15 K, x1 = 0.196): 952.7 ± 2 kg/m3 | viscosity ([1]; 303.15 K, x1 = 0.196): 0.81 ± 0.027 mPa·s | mass density ([1]; 303.15 K, x1 = 0.2939): 958.2 ± 2 kg/m3 | viscosity ([1]; 303.15 K, x1 = 0.2939): 0.833 ± 0.027 mPa·s | mass density ([1]; 303.15 K, x1 = 0.3966): 964.1 ± 2 kg/m3 | viscosity ([1]; 303.15 K, x1 = 0.3966): 0.856 ± 0.028 mPa·s | mass density ([1]; 303.15 K, x1 = 0.4975): 968.8 ± 2 kg/m3 | viscosity ([1]; 303.15 K, x1 = 0.4975): 0.878 ± 0.029 mPa·s | mass density ([1]; 303.15 K, x1 = 0.5983): 973.2 ± 2 kg/m3 | viscosity ([1]; 303.15 K, x1 = 0.5983): 0.897 ± 0.029 mPa·s | mass density ([1]; 303.15 K, x1 = 0.6953): 976.9 ± 2 kg/m3 | viscosity ([1]; 303.15 K, x1 = 0.6953): 0.913 ± 0.03 mPa·s | mass density ([1]; 303.15 K, x1 = 0.7984): 980.3 ± 2 kg/m3 | viscosity ([1]; 303.15 K, x1 = 0.7984): 0.928 ± 0.03 mPa·s | mass density ([1]; 303.15 K, x1 = 0.9042): 983.3 ± 2.1 kg/m3 | viscosity ([1]; 303.15 K, x1 = 0.9042): 0.938 ± 0.03 mPa·s | mass density ([1]; 303.15 K, x1 = 1): 984.1 ± 2.1 kg/m3 | viscosity ([1]; 303.15 K, x1 = 1): 0.919 ± 0.03 mPa·s | mass density ([1]; 308.15 K, x1 = 0.1004): 942.3 ± 2 kg/m3 | viscosity ([1]; 308.15 K, x1 = 0.1004): 0.739 ± 0.025 mPa·s | mass density ([1]; 308.15 K, x1 = 0.196): 948.2 ± 2 kg/m3 | viscosity ([1]; 308.15 K, x1 = 0.196): 0.76 ± 0.025 mPa·s | mass density ([1]; 308.15 K, x1 = 0.2939): 953.9 ± 2.1 kg/m3 | viscosity ([1]; 308.15 K, x1 = 0.2939): 0.78 ± 0.026 mPa·s | mass density ([1]; 308.15 K, x1 = 0.3966): 959.7 ± 2.1 kg/m3 | viscosity ([1]; 308.15 K, x1 = 0.3966): 0.799 ± 0.026 mPa·s | mass density ([1]; 308.15 K, x1 = 0.4975): 964.4 ± 2.1 kg/m3 | viscosity ([1]; 308.15 K, x1 = 0.4975): 0.819 ± 0.027 mPa·s | mass density ([1]; 308.15 K, x1 = 0.5983): 968.7 ± 2.1 kg/m3 | viscosity ([1]; 308.15 K, x1 = 0.5983): 0.836 ± 0.028 mPa·s | mass density ([1]; 308.15 K, x1 = 0.6953): 972.4 ± 2.1 kg/m3 | viscosity ([1]; 308.15 K, x1 = 0.6953): 0.851 ± 0.028 mPa·s | mass density ([1]; 308.15 K, x1 = 0.7984): 975.9 ± 2.1 kg/m3 | viscosity ([1]; 308.15 K, x1 = 0.7984): 0.863 ± 0.028 mPa·s | mass density ([1]; 308.15 K, x1 = 0.9042): 978.5 ± 2.1 kg/m3 | viscosity ([1]; 308.15 K, x1 = 0.9042): 0.871 ± 0.029 mPa·s | mass density ([1]; 308.15 K, x1 = 1): 979.4 ± 2.1 kg/m3 | viscosity ([1]; 308.15 K, x1 = 1): 0.853 ± 0.028 mPa·s | refractive index ([2]; 298.15 K, x1 = 0.1004): 1.4407 ± 0.0024 | refractive index ([2]; 298.15 K, x1 = 0.196): 1.4513 ± 0.0024 | refractive index ([2]; 298.15 K, x1 = 0.2939): 1.4614 ± 0.0024 | refractive index ([2]; 298.15 K, x1 = 0.3966): 1.4708 ± 0.0024 | refractive index ([2]; 298.15 K, x1 = 0.4975): 1.4798 ± 0.0024 | refractive index ([2]; 298.15 K, x1 = 0.5983): 1.4878 ± 0.0024 | refractive index ([2]; 298.15 K, x1 = 0.6953): 1.4953 ± 0.0024 | refractive index ([2]; 298.15 K, x1 = 0.7984): 1.5024 ± 0.0024 | refractive index ([2]; 298.15 K, x1 = 0.9042): 1.5099 ± 0.0024 | refractive index ([2]; 298.15 K, x1 = 1): 1.5148 ± 0.0024 | refractive index ([2]; 303.15 K, x1 = 0.1004): 1.4381 ± 0.0024 | refractive index ([2]; 303.15 K, x1 = 0.196): 1.4487 ± 0.0024 | refractive index ([2]; 303.15 K, x1 = 0.2939): 1.4587 ± 0.0024 | refractive index ([2]; 303.15 K, x1 = 0.3966): 1.4683 ± 0.0024 | refractive index ([2]; 303.15 K, x1 = 0.4975): 1.4771 ± 0.0024 | refractive index ([2]; 303.15 K, x1 = 0.5983): 1.4852 ± 0.0024 | refractive index ([2]; 303.15 K, x1 = 0.6953): 1.4928 ± 0.0024 | refractive index ([2]; 303.15 K, x1 = 0.7984): 1.5 ± 0.0024 | refractive index ([2]; 303.15 K, x1 = 0.9042): 1.5071 ± 0.0024 | refractive index ([2]; 303.15 K, x1 = 1): 1.5124 ± 0.0024 | refractive index ([2]; 308.15 K, x1 = 0.1004): 1.4356 ± 0.0024 | refractive index ([2]; 308.15 K, x1 = 0.196): 1.4462 ± 0.0024 | refractive index ([2]; 308.15 K, x1 = 0.2939): 1.4558 ± 0.0024 | refractive index ([2]; 308.15 K, x1 = 0.3966): 1.4656 ± 0.0024 | refractive index ([2]; 308.15 K, x1 = 0.4975): 1.4744 ± 0.0024 | refractive index ([2]; 308.15 K, x1 = 0.5983): 1.4825 ± 0.0024 | refractive index ([2]; 308.15 K, x1 = 0.6953): 1.4902 ± 0.0024 | refractive index ([2]; 308.15 K, x1 = 0.7984): 1.4973 ± 0.0024 | refractive index ([2]; 308.15 K, x1 = 0.9042): 1.5043 ± 0.0024 | refractive index ([2]; 308.15 K, x1 = 1): 1.5092 ± 0.0024
